This is an account of results in US6440989B2, “Phenyl-substituted tricyclic inhibitors of farnesyl-protein transferase” (Schering Corporation, priority 1997, dated 2002).

This assay concerns the target T1, partially purified rat brain farnesyl protein transferase (FPT) (Rattus norvegicus, UniProt Q02293+Q04631).
T1 construct: partially purified rat brain farnesyl protein transferase (FPT); from tissue; host or cells: rat brain
Kind of assay: In vitro enzyme assay: inhibition of Ras-CVLS farnesylation by farnesyl protein transferase. The format is biochemical. As to the method:
1. In vitro enzyme assays: FPT IC50 (inhibition of farnesyl protein transferase, in vitro enzyme assay) are determined by the methods disclosed in WO/10515 or WO 95110516.
One may read the IC50 as the concentration at which inhibition is half-maximal. `COc1cc(C)cc2c1C(C1CCN(C(=O)Cc3cc[n+]([O-])cc3)CC1)c1ncc(C(C)(C)O)cc1CC2` (racemic) [Example 23, (+,−)-4-[6,11-dihydro-3-(1-hydroxy-1-methylethyl)-10-methoxy-8-methyl-5H-benzo[5,6]cyclohepta[1,2-b]pyridin-11-yl]-1-(4-pyridinylacetyl)piperidine N1-oxide] registered an IC50 of over 200 nM. Take `COc1cc(C)cc2c1C(C1CCN(C(=O)Cc3cc[n+]([O-])cc3)CC1)c1ncc(Br)cc1CC2` (single isomer, unassigned; (+)) [Example 24, (+)-4-(3-Bromo-10-methoxy-8-methyl-6,11-dihydro-5H-benzo[5,6]cyclohepta[1,2-b]pyridin-11-yl)-4-(4-pyridinylacetyl)piperidine N1-oxide, (+) enantiomer]: the IC50 was 3.6 nM.

`COc1cc(C)cc2c1C(C1CCN(C(=O)Cc3cc[n+]([O-])cc3)CC1)c1ncc(Br)cc1CC2` (single isomer, unassigned; (-)) [Example 25, (−)-4-(3-Bromo-10-methoxy-8-methyl-6,11-dihydro-5H-benzo[5,6]cyclohepta[1,2-b]pyridin-11-yl)-4-(4-pyridinylacetyl)piperidine N1-oxide, (−) enantiomer] gave an IC50 of 220 nM. Consider `Cc1cc(Br)c2c(c1)CCc1cc(Br)cnc1C2N1CCN(C(=O)Cc2cc[n+]([O-])cc2)CC1` (racemic) [Example 21], for which the IC50 worked out at 4.8 nM. Then `COc1cc(C)cc2c1C(=C1CCN(C(=O)Cc3cc[n+]([O-])cc3)CC1)c1ncc(Br)cc1CC2` [Example 8, (+,−)-4-(3-bromo-10-methoxy-8-methyl-5,6-dihydro-11H-benzo[5,6]cyclohepta[1,2-b]pyridin-11-ylidene)-1-(4-pyridinylacetyl)piperidine N1-oxide], with 30 nM.
